From paper PMC13538185, “The PSD-95 inhibitor NA-1 is delivered to the brain upon nasal administration with uptake into the olfactory bulb improved by co-administration with the cell-penetrating peptides lowPro and Tat” (Drug Delivery and Translational Research, 2025)

Legend:
[1] = tested on: primary porcine olfactory epithelial monolayers; assay: Transport of NA-1 alone or co-administered with cell-penetrating peptides across primary porcine olfactory epithelial monolayers (ICP-MS of selenium); type: in vitro ADME
Text: Oxygen was applied as reaction gas.

NMRI mice [2] = details: nasal
[3] = not given; remark: listed apart in the source
[4] = not given; remark: listed apart in the source
[5] = Biodistribution after intravenous bolus injection to mice (reference group); details: mouse, in vivo, iv, 3 nmol/g body weight
Experimental: (§1) In an intravenous reference group, NA-1 was administered as a bolus injection (3 nmol/g body weight in 0.9% NaCl) into the tail vein. After 60 min compound circulation, the animals were transcardially perfused with 0.01 M PBS (pH 7.4). The brain, olfactory bulb, heart, lungs, spleen, kidneys, liver, and 2–3 cm of the upper part of duodenum were collected in 2 mL tubes and stored at -70 °C until analysis. […] The homogenate was spun down for 10 min at 14,000 rpm and 4 °C in a Sigma 1–15 K centrifuge (DJB Labcare, Newport Pagnell, England). […] Biodistribution of NA-1 was assessed by measuring the selenium content in tissue digested in HNO3 for 3–5 days at room temperature (50 mg tissue per 0.5 mL HNO3 for heart, lungs, spleen, kidney, and duodenum or 0.2 mL HNO3 for olfactory bulb and 1 mL HNO3 for the remaining brain. The tissue samples were spun down for 5 min at 10,000 rpm in a Sigma 1–15 K centrifuge (DJB Labcare, Newport Pagnell, England) before dilution (1:5–1:32) in 5% methanol with 0.1% trifluoroacetic acid in ultrapure water. The samples were analyzed with ICP-MS as described for transport studies, but with a 20 µL injection volume and a 2 min run time.

NMRI mice [6] = assay: as above; details: mice, 3 nmol/g, 1 h
Experimental: as §1

[7] = tested on: primary porcine olfactory epithelial cells; assay: Cellular metabolic activity (XTT assay); type: cell-based; details: 4 h incubation with 50 or 100 µM peptide in transport medium, 37 °C, N = 3, n = 3
Experimental: The cellular metabolic activity was assessed on olfactory epithelial cells cultured in a 96-well plate for 48 h using a commercially available sodium 3´-[1-(phenylaminocarbonyl)-3,4-tetrazolium]-bis (4-methoxy-6-nitro) benzene sulfonic acid hydrate (XTT) assay as directed by the manufacturer. […] Cells incubated with transport medium (MEM w/o phenol red, 0.05% BSA, 0.1 U/mL Penicillin, 0.1 µg/mL Streptomycin) without peptides served as live cell controls and wells with transport medium but no cells served as dead cell controls. After peptide incubation, the cells were gently washed twice with transport medium before incubation with 100 µL transport medium and 50 µL XTT labelling mixture (electron-coupling reagent: XTT labelling reagent 1:50) for 1 h at 37 °C with horizontal shaking (90 rpm). Samples (100 µL) from each well were transferred to a new 96-well plate and the absorbance was measured at 466 nm using a SPECTROstar Nano plate reader (BMG Labtech, Ortenberg, Germany). The relative cellular viability was calculated by Eq. 1:1

[8] = tested on: primary porcine olfactory epithelial monolayers; details: ALI 20-21 days, apical to basolateral, 0.5 mg/mL in transport medium (MEM, 0.05% BSA), 37 °C, fluorescence read-out, mean (N = 3-4, n = 3)
Experimental: Transport studies were performed on olfactory epithelial cell monolayers cultured for 20 or 21 days under ALI conditions. […] 50 µL samples were withdrawn at time points 0.5, 1, 1.5, 2, 3, 4, and 24 h into black clear-bottom 96-well plates. The sampling volume was immediately replaced with 37 °C transport medium. […] The experiments with NA-1 and the cell-penetrating peptides were initiated by gently applying 300 µL samples (50 µM NA-1 alone or co-administered with 50 µM Tat, LowPro, or PenShuf) in 37 °C transport buffer to the apical compartment. 75 µL samples were withdrawn at time points 1, 2, 3, and 16 h into glass vials. The sampling volume was immediately replaced with 37 °C transport buffer. NA-1 was labelled with selenomethionine (M^Se) between the Tat and the NR2B9c moiety to facilitate analysis through selenium quantification using inductively coupled plasma mass spectrometry (ICP-MS). For selenium analysis, the samples were subjected to flow injection analysis on a Dionex Ultimate 3000 UPLC (Thermo Fischer Scientific, Germering, Germany) with ICP-MS detection using an Agilent 8800 Triple Quad equipped with a 2.5 mm quartz torch with platinum sampler -and skimmer cones (Agilent Technologies, Santa Clara, CA, USA).

[9] = tested on: primary porcine olfactory epithelial monolayers; assay: Transepithelial electrical resistance (TEER) before and after peptide incubation; type: cell-based; details: 100 µM peptide, 3 h incubation, N = 3, n = 2
Text: Thereafter, the cells were equilibrated to RT prior measuring the TEER with a chopstick electrode or in an Endohm-24 cup connected to an Epithelial Volt/Ohm meter (both World Precision Instruments, Sarasota, FL, USA). The measured TEER values were subtracted the resistance across an empty Transwell insert and multiplied with the area of the insert (0.33 cm^2) to obtain the standardized unit Ω⋅cm^2.

[10] = NA-1 alone, 3 nmol/g body weight, 1 h after administration, perfused, ICP-MS of selenium, mean (N = 4-6)

Compound: CC[C@H](C)[C@H](NC(=O)[C@H](CO)NC(=O)[C@H](CO)NC(=O)[C@H](CC(C)C)NC(=O)[C@H](CCCCN)NC(=O)[C@H](CC[Se]C)NC(=O)[C@@H](CCCNC(=N)N)NC(=O)[C@@H](CCCNC(=N)N)NC(=O)[C@@H](CCCNC(=N)N)NC(=O)[C@@H](CCC(N)=O)NC(=O)[C@@H](CCCNC(=N)N)NC(=O)[C@@H](CCCNC(=N)N)NC(=O)[C@@H](CCCCN)NC(=O)[C@@H](CCCCN)NC(=O)[C@@H](CCCNC(=N)N)NC(=O)CNC(=O)[C@H](N)Cc1ccc(O)cc1)C(=O)N[C@@H](CCC(=O)O)C(=O)N[C@@H](CO)C(=O)N[C@@H](CC(=O)O)C(=O)N[C@H](C(=O)O)C(C)C [NA-1]
- Effect of co-administration with PenShuf on barrier permeation of NA-1 at the 16 h time-point ([1]; 50 µM NA-1 + 50 µM PenShuf vs NA-1 alone, 16 h, ICP-MS, N = 6, p < 0.0001 one-way ANOVA): significantly improved
- Fold better permeation potential of NA-1 compared to 4 KDa FITC-dextran ([1]; ratio of Papp values across primary porcine olfactory monolayers): 3.2 fold
- Rank order of off-target tissue distribution (NMRI mice [2]; 3 nmol/g, 1 h, not affected by co-administration with the cell-penetrating peptides): kidney > liver > spleen > duodenum > lung > heart
- NA-1 accumulation in the olfactory bulb, co-administered with LowPro (NMRI mice [2]; NA-1:LowPro 1:1 molar ratio, 3 nmol/g, 1 h, ICP-MS, mean (N = 4-6)): 2.98 % administered dose/g
- NA-1 accumulation in the olfactory bulb, co-administered with PenShuf (NMRI mice [2]; NA-1:PenShuf 1:1 molar ratio, 3 nmol/g, 1 h, ICP-MS, mean (N = 4-6)): 1.63 % administered dose/g
- NA-1 accumulation in the olfactory bulb, co-administered with Tat (NMRI mice [2]; NA-1:Tat 1:1 molar ratio, 3 nmol/g, 1 h, ICP-MS, mean (N = 4-6)): 2.13 % administered dose/g
- NA-1 accumulation in the olfactory bulb (NMRI mice [2]; [10]): 1.38 % administered dose/g
- NA-1 accumulation in the remaining brain (NMRI mice [2]; [10]): 0.54 % administered dose/g
- Combined amount of NA-1 reaching the olfactory bulb and the brain (NMRI mice [2]; NA-1 alone, 1 h, p = 0.15 vs intravenous control): 1.92 % of administered dose/g
- apparent permeability (Papp) of NA-1 co-administered with LowPro (× 10^− 6 cm/sec): 0.22
- apparent permeability (Papp) of NA-1 co-administered with PenShuf (× 10^− 6 cm/sec) [3]: 0.8
- apparent permeability (Papp) of NA-1 co-administered with Tat (× 10^− 6 cm/sec) [4]: 0.09
- tissue uptake at 1 h [5]: 1.57 %ID/g
- Fold higher amount of NA-1 in duodenum, intravenous vs nasal administration (NMRI mice [6]): 4.5 fold
- Fold higher amount of NA-1 in kidneys, intravenous vs nasal administration (NMRI mice [6]): 9.5 fold
- Fold higher amount of NA-1 in lungs, intravenous vs nasal administration (NMRI mice [6]): 2.8 fold
- Fold higher amount of NA-1 in spleen, intravenous vs nasal administration (NMRI mice [6]): 1.6 fold

Compound: N=C(N)NCCC[C@H](NC(=O)[C@H](CCCNC(=N)N)NC(=O)[C@H](CCCNC(=N)N)NC(=O)[C@H](CCC(N)=O)NC(=O)[C@H](CCCNC(=N)N)NC(=O)[C@H](CCCNC(=N)N)NC(=O)[C@H](CCCCN)NC(=O)[C@H](CCCCN)NC(=O)[C@H](CCCNC(=N)N)NC(=O)CNC(=O)[C@@H](N)Cc1ccc(O)cc1)C(=O)O [Tat]
- Cellular metabolic activity relative to cell culture media controls [7]: slight decrease

Compound: O=C([O-])c1ccccc1-c1c2ccc(=O)cc-2oc2cc([O-])ccc12.[Na+].[Na+] [sodium fluorescein]
- Fraction of applied compound permeated the barrier upon 24 h of incubation [8]: 29.3%

Compound: RWFKIQMQIRRWKNKK [PenShuf]
- Barrier integrity (TEER before vs after incubation), highest applied concentration [9]: negatively affect the barrier integrity
